Data reported in patent publication US11149066B2, “Thrombospondin 1-binding peptide” (DAIICHI SANKYO COMPANY, LIMITED, priority 2016, dated 2021).
Where two headings read alike, the source gives them in different places. Positions of bridges follow the written chain, without caps; N, C: chain ends. Non-standard residues stand in square brackets, D forms with d. Residues, ends and D or L forms follow the SMILES beside them. 2Nal = N[C@@H](Cc1ccc2ccccc2c1)C(=O)O; Nle = CCCC[C@H](N)C(=O)O

How the values were obtained:
C57BL/6 mice = experiment: Blood flow improvement tests (femoral artery/vein ligation and excision, laser Doppler); format: in vivo; settings: after 7 days of surgery; for % change (vs. vehicle): blood flow ratio ischemia/nonischemia; for %, ischemia/nonischemia: blood flow ratio of ischemic limb to non-ischemic limb, laser Doppler
From the text: (Test Example 3) Blood Flow Improvement Tests
Seven to nine-week-old male C57BL/6 mice were purchased from Charles River Laboratories Japan Inc., and acclimated over one week by feeding with a FR-2 solid diet (produced by Funabashi Farm Co., Ltd.). The rearing facility switched between light and dark modes in a 12-hour cycle with light turning on at 7 a.m and turning off at 7 p.m. Under isofluorane inhalation anaesthesia, the left thighs of the mice were dissected, and the superficial femoral arteries and veins (from just below the deep femoral arteries to the popliteal artery and vein) were ligated and excised. After animal models were made, the test substances (Compounds 24, 28, 40 to 45, and 58) were each dissolved in a solution of 20 mM lactic acid and 5% (w/v) Lutrol, and intraperitoneally injected into mice once daily.
(Blood Flow Improvement Test 1)
Compound 24 (10 mg/kg)-treated group
(Blood Flow Improvement Test 2)
Compound 28 (10 mg/kg)-treated group
(Blood Flow Improvement Test 3)
Compound 40 (10 mg/kg)-treated group
Compound 41 (10 mg/kg)-treated group
(Blood Flow Improvement Test 4)
Compound 42 (10 mg/kg)-treated group
Compound 43 (10 mg/kg)-treated group
Compound 44 (10 mg/kg)-treated group
Compound 45 (10 mg/kg)-treated group
(Blood Flow Improvement Test 5)
Compound 58 (10 mg/kg)-treated group
Blood flows were measured in ischemic (left) and non-ischemic (right) limbs using a laser Doppler perfusion imager (LDPI; PIM III, Perimed, Inc.). Blood flow values were evaluated by the ratio of ischemic limb flow to non-ischemic limb flow.
Blood flow values from the mice were the lowest immediately after surgery and then gradually recovered. All of the test substances investigated in the animal models of this study improved blood flow recovery after surgery as compared to vehicle treatment. After 7 days of surgery, the blood flows in the test substance-treated groups were higher than in the vehicle-treated mice.

human TSP1 = human TSP1 (Homo sapiens, UniProt P07996); experiment: Cell adhesion inhibition assay (HUVEC adhesion to TSP1-coated plate); format: cell-based
human TSP1, sequence (P07996 19-1170 limits assumed): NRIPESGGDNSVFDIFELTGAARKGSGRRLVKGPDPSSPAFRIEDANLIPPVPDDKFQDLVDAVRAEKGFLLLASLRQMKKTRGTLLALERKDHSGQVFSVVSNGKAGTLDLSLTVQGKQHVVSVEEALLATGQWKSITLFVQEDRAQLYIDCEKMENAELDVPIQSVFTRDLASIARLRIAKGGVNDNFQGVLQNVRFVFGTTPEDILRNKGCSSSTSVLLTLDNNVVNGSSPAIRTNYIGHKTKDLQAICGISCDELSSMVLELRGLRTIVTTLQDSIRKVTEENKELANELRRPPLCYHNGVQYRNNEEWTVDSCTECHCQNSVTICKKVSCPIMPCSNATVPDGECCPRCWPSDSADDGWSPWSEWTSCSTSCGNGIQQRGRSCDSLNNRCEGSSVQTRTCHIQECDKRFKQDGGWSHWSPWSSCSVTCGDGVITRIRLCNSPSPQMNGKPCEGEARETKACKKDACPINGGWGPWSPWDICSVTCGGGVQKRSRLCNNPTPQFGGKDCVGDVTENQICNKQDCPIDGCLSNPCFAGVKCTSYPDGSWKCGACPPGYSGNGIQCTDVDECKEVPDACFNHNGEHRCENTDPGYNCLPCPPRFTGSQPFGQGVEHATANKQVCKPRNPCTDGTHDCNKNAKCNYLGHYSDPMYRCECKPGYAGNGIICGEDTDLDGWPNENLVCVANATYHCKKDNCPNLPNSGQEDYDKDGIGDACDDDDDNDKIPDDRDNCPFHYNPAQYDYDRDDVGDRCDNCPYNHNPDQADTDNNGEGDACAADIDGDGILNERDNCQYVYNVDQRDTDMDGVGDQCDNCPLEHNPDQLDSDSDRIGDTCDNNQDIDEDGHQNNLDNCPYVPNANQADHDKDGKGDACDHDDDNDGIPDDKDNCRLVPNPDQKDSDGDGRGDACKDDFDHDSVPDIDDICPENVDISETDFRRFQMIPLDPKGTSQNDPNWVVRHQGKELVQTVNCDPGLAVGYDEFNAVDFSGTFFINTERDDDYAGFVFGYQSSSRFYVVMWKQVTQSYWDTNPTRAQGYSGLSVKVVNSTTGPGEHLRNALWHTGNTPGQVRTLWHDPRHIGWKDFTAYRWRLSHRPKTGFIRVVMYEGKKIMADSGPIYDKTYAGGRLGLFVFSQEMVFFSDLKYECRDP
Protocol: As referred to herein, the TSP1 inhibitory activity refers to the activity to inhibit one or more effects of TSP1, including angiostatic effect. The TSP1 inhibitory activity is measured by a cell adhesion inhibition assay using human TSP1 and vascular endothelial cells as described hereinbelow in the Examples section. In this assay, when the 50% inhibitory concentration (IC5O) of a test substance is 200 nM or less, the test substance is determined to have TSP1 inhibitory activity.
(Test Example 1) Cell Adhesion Inhibition Assay
I. Materials and Reagents
96 well Non-treated White with clear bottom (Coster, 3632)
BrightMax adhesive sealing films (EXCEL Scientific, WT50)
Proteosave®SS 15 mL (Sumitomo Bakelite, MS-52150)
Thrombospondin human platelet (Calbiochem, 605225)
EGM-2 MV (Lonza, CC-3202): for HUVEC passaging
Collagen coated dish (IWAKI, 4020-010): for HUVEC passaging
Lipidure®-BL802 (NOF Corporation), 5% solution
Albumin solution (35%) fraction V from Bovine (Sigma, A7979)
CellTiter-Glo (Promega, G7572)
Thrombospondin 1 vial (25 μg) was dissolved in TBS (+2 mM CaCl2; the same shall apply hereunder) to make a 200 μg/mL solution, which was diluted with TBS to a concentration of 10 μg/mL in Proteosave® 15 mL tube. The 10 μg/mL solution was dispensed into a 96 well plate at a volume of 50 μL/well (no reservoir was used since the protein easily adsorbs on it), and the plate was left to stand at 4° C. overnight.
Lipidure® was diluted 10-fold with TBS to make a 0.5% solution. After a buffer was discarded from the plate that had been coated at the step of <Plate coat> as described above, the 0.5% solution was dispensed into all wells to be used at a volume of 100 μL/well, and the plate was left to stand at room temperature for 1 hour.
A 0.2 μM solution of each sample was prepared using a dilution buffer (DMEM+0.5% BSA). 2 μL of the 0.2 μM solution was diluted with 500 μL, of dilution buffer to prepare a diluted sample. As a vehicle control, DMSO was diluted in the same way as the samples.
A blocking solution was discarded from the plate that had been treated at the step of <Plate blocking> as described above, and the plate was washed three times with 150 μL/well of TBS. The washing solution used for the third washing was completely sucked out by an aspirator, and the diluted sample was dispensed into the plate at a volume of 50 μL/well. Then, the plate was left to stand at room temperature for 15 to 30 minutes.
To maintain HUVECs, EGM2-MV and a collagen coated dish were used (the cells were ceased to be used after 10th or 1 lth passage since the cell proliferation rate declined at this stage). The cells were dispersed with 0.05% Trypsin/EDTA, harvested in DMEM/0.5% BSA, and centrifuged at 1000 rpm for 3 minutes. After removal of supernatant, the cells were washed once with a DMEM buffer. The cells were resuspended in a DMEM buffer, counted for cell number, and diluted to 10000 cells/50 μL. The cell suspension was dispensed at a volume of 50 μL/well into the plate into which the sample had been dispensed, mixed gently, and incubated at 37° C. for 2.5 hours.
After cell adhesion was confirmed, the culture medium was completely removed by an aspirator, and 100 μL/well of DMEM/0.5% BSA was gently dispensed. Then, DMEM/0.5% BSA was completely removed by an aspirator, and 50 μL/well of DMEM/0.5% BSA was dispensed. After a white seal was applied to the bottom of the plate, 50 μL/well of CellTiter-Glo® was dispensed, and the solution was stirred for 2 minutes and left to stand at room temperature for 8 minutes. […] was detected using EnVision Xcite Multilabel Reader (produced by Perkin Elmer).
On the basis of the measured fluorescence values, the IC50 values (nM) of the different macrocyclic polypeptides for inhibition of cell adhesion were calculated.

[1] = HUVEC adhesion to TSP1-coated plate, read-out: cell adhesion inhibition (Table 4)

| Structure (SMILES) | IC50 (human TSP1; [1]) | other results |
| --- | --- | --- |
| CC[C@H](C)[C@@H]1NC(=O)[C@H](Cc2ccc3ccccc3c2)NC(=O)CSC[C@@H](C(N)=O)NC(=O)[C@H](C(C)C)NC(=O)[C@H](Cc2c[nH]c3ccccc23)NC(=O)[C@H](CCCCN)NC(=O)[C@H](C(C)C)NC(=O)[C@H](Cc2ccc3ccccc3c2)NC(=O)[C@H](CC(N)=O)NC(=O)[C@H](CCCNC(=N)N)NC(=O)CNC(=O)[C@H](CO)NC1=O [Compound 28] ({CH2CO}-[2Nal]ISGRN[2Nal]VKWVC-NH2; thioether N-12) | – | % change (vs. vehicle) (C57BL/6 mice): 1.8%; %, ischemia/nonischemia (C57BL/6 mice): 40.79% |
| CC[C@H](C)[C@@H]1NC(=O)[C@H](Cc2ccc3ccccc3c2)NC(=O)CSC[C@@H](C(N)=O)NC(=O)[C@H](C(C)C)NC(=O)[C@H](Cc2c[nH]c3ccccc23)NC(=O)[C@H](CCCCN)NC(=O)[C@H](C(C)C)NC(=O)[C@H](Cc2c[nH]c3ccccc23)NC(=O)[C@H](CC(=O)O)NC(=O)[C@H](CCCNC(=N)N)NC(=O)CNC(=O)[C@H](CO)NC1=O [Compound 40] ({CH2CO}-[2Nal]ISGRDWVKWVC-NH2; thioether N-12) | – | IC50 (human TSP1; HUVEC adhesion to human platelet thrombospondin-coated plate, 2.5 hours, CellTiter-Glo, read-out: Cell adhesion IC50): 16.1 nM; % change (vs. vehicle) (C57BL/6 mice): 6.4%; %, ischemia/nonischemia (C57BL/6 mice): 46.53% |
| CC[C@H](C)[C@@H]1NC(=O)[C@H](Cc2ccc3ccccc3c2)NC(=O)CSC[C@@H](C(N)=O)NC(=O)[C@H](C(C)C)NC(=O)[C@H](Cc2c[nH]c3ccccc23)NC(=O)[C@H](Cc2c[nH]cn2)NC(=O)[C@H](C(C)C)NC(=O)[C@H](Cc2c[nH]c3ccccc23)NC(=O)[C@H](CC(N)=O)NC(=O)[C@H](CCCNC(=N)N)NC(=O)CNC(=O)[C@H](CO)NC1=O [Compound 41] ({CH2CO}-[2Nal]ISGRNWVHWVC-NH2; thioether N-12) | – | % change (vs. vehicle) (C57BL/6 mice): 32.7%; %, ischemia/nonischemia (C57BL/6 mice): 58.05% |
| CC(C)[C@@H]1NC(=O)[C@H](Cc2c[nH]c3ccccc23)NC(=O)[C@H](C(C)C)NC(=O)[C@H](C(C)C)NC(=O)[C@H](Cc2c[nH]c3ccccc23)NC(=O)[C@H](CC(=O)O)NC(=O)[C@H](CCCCN)NC(=O)CNC(=O)[C@H](CO)NC(=O)[C@H](CCCNC(=N)N)NC(=O)[C@H](Cc2ccc3ccccc3c2)NC(=O)CSC[C@@H](C(N)=O)NC1=O [Compound 99] ({CH2CO}-[2Nal]RSGKDWVVWVC-NH2; thioether N-12) | 14.2 nM | – |
| CCCC[C@@H]1NC(=O)[C@H](Cc2c[nH]c3ccccc23)NC(=O)[C@H](CC(N)=O)NC(=O)[C@H](Cc2c[nH]cn2)NC(=O)CNC(=O)[C@H](CO)NC(=O)[C@H](CCCNC(=N)N)NC(=O)[C@H](Cc2ccc3ccccc3c2)NC(=O)CSC[C@@H](C(N)=O)NC(=O)[C@H](C(C)C)NC(=O)[C@H](Cc2c[nH]c3ccccc23)NC(=O)[C@H](C(C)C)NC1=O [Compound 100] ({CH2CO}-[2Nal]RSGHNW[Nle]VWVC-NH2; thioether N-12) | 19.5 nM | – |
| CCCC[C@@H]1NC(=O)[C@H](Cc2c[nH]c3ccccc23)NC(=O)[C@H](CC(=O)O)NC(=O)[C@H](Cc2c[nH]cn2)NC(=O)CNC(=O)[C@H](CO)NC(=O)[C@H](CCCNC(=N)N)NC(=O)[C@H](Cc2ccc3ccccc3c2)NC(=O)CSC[C@@H](C(N)=O)NC(=O)[C@H](C(C)C)NC(=O)[C@H](Cc2c[nH]c3ccccc23)NC(=O)[C@H](C(C)C)NC1=O [Compound 101] ({CH2CO}-[2Nal]RSGHDW[Nle]VWVC-NH2; thioether N-12) | 19.6 nM | – |

Continued, in another order:

| IC50 (human TSP1; [1]) | Structure (SMILES) | other results |
| --- | --- | --- |
| 15.5 nM | CCCC[C@@H]1NC(=O)[C@H](Cc2c[nH]c3ccccc23)NC(=O)[C@H](CC(=O)O)NC(=O)[C@H](CCCNC(=N)N)NC(=O)CNC(=O)[C@H](CO)NC(=O)[C@H]([C@@H](C)CC)NC(=O)[C@H](Cc2ccc3ccccc3c2)NC(=O)[C@H]([C@@H](C)O)NC(=O)CSC[C@@H](C(N)=O)NC(=O)[C@H](C(C)C)NC(=O)[C@H](Cc2c[nH]c3ccccc23)NC(=O)[C@H](CCCCN)NC1=O [Compound 85] ({CH2CO}-T[2Nal]ISGRDW[Nle]KWVC-NH2; thioether N-13) | – |
| 14.2 nM | CCCC[C@@H]1NC(=O)[C@H](Cc2c[nH]c3ccccc23)NC(=O)[C@H](CC(=O)O)NC(=O)[C@H](CCCNC(=N)N)NC(=O)CNC(=O)[C@H](CO)NC(=O)[C@H]([C@@H](C)CC)NC(=O)[C@H](Cc2ccc3ccccc3c2)NC(=O)[C@H](CCC(N)=O)NC(=O)CSC[C@@H](C(N)=O)NC(=O)[C@H](C(C)C)NC(=O)[C@H](Cc2c[nH]c3ccccc23)NC(=O)[C@H](CCCCN)NC1=O [Compound 86] ({CH2CO}-Q[2Nal]ISGRDW[Nle]KWVC-NH2; thioether N-13) | – |
| 17.2 nM | CCCC[C@@H]1NC(=O)[C@H](Cc2c[nH]c3ccccc23)NC(=O)[C@H](CC(=O)O)NC(=O)[C@H](CCCNC(=N)N)NC(=O)CNC(=O)[C@H](CO)NC(=O)[C@H]([C@@H](C)CC)NC(=O)[C@H](Cc2ccc3ccccc3c2)NC(=O)[C@H](CCCCN)NC(=O)CSC[C@@H](C(N)=O)NC(=O)[C@H](C(C)C)NC(=O)[C@H](Cc2c[nH]c3ccccc23)NC(=O)[C@H](CCCCN)NC1=O [Compound 90] ({CH2CO}-K[2Nal]ISGRDW[Nle]KWVC-NH2; thioether N-13) | – |
| 17.1 nM | CCCC[C@@H]1NC(=O)[C@H](Cc2c[nH]c3ccccc23)NC(=O)[C@H](CC(=O)O)NC(=O)[C@H](CCCNC(=N)N)NC(=O)CNC(=O)[C@H](CO)NC(=O)[C@H]([C@@H](C)CC)NC(=O)[C@H](Cc2ccc3ccccc3c2)NC(=O)[C@H](Cc2c[nH]cn2)NC(=O)CSC[C@@H](C(N)=O)NC(=O)[C@H](C(C)C)NC(=O)[C@H](Cc2c[nH]c3ccccc23)NC(=O)[C@H](CCCCN)NC1=O [Compound 91] ({CH2CO}-H[2Nal]ISGRDW[Nle]KWVC-NH2; thioether N-13) | – |
| 15.5 nM | CCCC[C@@H]1NC(=O)[C@H](Cc2c[nH]c3ccccc23)NC(=O)[C@H](CC(=O)O)NC(=O)[C@H](CCCCN)NC(=O)CNC(=O)[C@H](CO)NC(=O)[C@H]([C@@H](C)CC)NC(=O)[C@H](Cc2ccc3ccccc3c2)NC(=O)[C@H](CO)NC(=O)CSC[C@@H](C(N)=O)NC(=O)[C@H](C(C)C)NC(=O)[C@H](Cc2c[nH]c3ccccc23)NC(=O)[C@H](CCCNC(=N)N)NC1=O [Compound 92] ({CH2CO}-S[2Nal]ISGKDW[Nle]RWVC-NH2; thioether N-13) | – |
